The target in the first assay is T1, Transient receptor potential cation channel subfamily V member 1 (Homo sapiens, UniProt Q8NER1). Kind of assay: Antagonist activity at human TRPV1 expressed in CHO cells assessed as inhibition of capsaicin-induced activation by FLIPR assay. Type of assay: cell-based. The following applies: cho.
T1 sequence (Q8NER1 whole entry): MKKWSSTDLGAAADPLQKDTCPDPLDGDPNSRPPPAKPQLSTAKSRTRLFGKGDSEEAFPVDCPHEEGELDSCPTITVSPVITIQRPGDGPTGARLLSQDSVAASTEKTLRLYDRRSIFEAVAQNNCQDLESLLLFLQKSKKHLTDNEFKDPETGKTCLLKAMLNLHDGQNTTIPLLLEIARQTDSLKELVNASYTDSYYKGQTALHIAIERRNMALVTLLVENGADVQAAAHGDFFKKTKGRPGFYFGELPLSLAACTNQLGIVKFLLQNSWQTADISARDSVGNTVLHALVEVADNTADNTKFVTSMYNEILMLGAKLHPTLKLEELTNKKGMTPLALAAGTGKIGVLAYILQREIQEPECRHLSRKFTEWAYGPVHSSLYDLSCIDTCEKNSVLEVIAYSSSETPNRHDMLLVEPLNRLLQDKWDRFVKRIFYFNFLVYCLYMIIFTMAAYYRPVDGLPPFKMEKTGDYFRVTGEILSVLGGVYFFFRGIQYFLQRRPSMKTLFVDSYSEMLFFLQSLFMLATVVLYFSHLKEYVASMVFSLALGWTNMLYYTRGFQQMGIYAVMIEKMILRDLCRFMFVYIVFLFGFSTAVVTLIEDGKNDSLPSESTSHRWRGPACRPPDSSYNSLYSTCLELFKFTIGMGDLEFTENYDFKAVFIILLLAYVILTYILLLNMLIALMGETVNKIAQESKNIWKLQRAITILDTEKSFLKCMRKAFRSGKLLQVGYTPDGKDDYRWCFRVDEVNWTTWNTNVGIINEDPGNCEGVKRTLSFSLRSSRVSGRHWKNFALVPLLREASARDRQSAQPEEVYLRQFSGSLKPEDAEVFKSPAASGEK
For the compound `CS(=O)(=O)Nc1ccc(C(C(=O)NCc2ccc(C(F)(F)F)nc2SC2CCCCC2)C2CCCCC2)cc1F` (configuration not stated), the Ki entry is recorded as “Active”.

As for `Cc1ccccc1C(C(=O)NCc1ccc(C(F)(F)F)nc1SC1CCCCC1)c1ccc(NS(C)(=O)=O)c(F)c1` (configuration not stated), the Ki entry is listed as “Active”. Turning to `CS(=O)(=O)Nc1ccc(C(Cc2ccccc2)C(=O)NCc2ccc(C(F)(F)F)nc2SC2CCCCC2)cc1F` (configuration not stated), the Ki result is “Active”. For the compound `CS(=O)(=O)Nc1ccc(C(Cc2ccc(F)cc2)C(=O)NCc2ccc(C(F)(F)F)nc2SC2CCCCC2)cc1F` (configuration not stated), the inhibitory constant (Ki) entry is listed as “Active”.

`Cc1ccc(CC(C(=O)NCc2ccc(C(F)(F)F)nc2N2CCC(C)CC2)c2ccc(NS(C)(=O)=O)c(F)c2)cc1` (configuration not stated): the inhibitory constant (Ki) entry is “Active”.

Take `CCC(C)(C(=O)NCc1ccc(C(F)(F)F)nc1SC1CCCCC1)c1ccc(NS(C)(=O)=O)c(F)c1` (configuration not stated): the inhibition constant Ki entry was “Active”. As to `CC1CCN(c2nc(C(F)(F)F)ccc2CNC(=O)C2(c3ccc(NS(C)(=O)=O)c(F)c3)CCCC2)CC1`, the Ki result is “Active”. Same read-out and setting: to `CS(=O)(=O)Nc1ccc(C2(C(=O)NCc3ccc(C(F)(F)F)nc3SC3CCCCC3)CCCC2)cc1F` belongs “Active”.

The same assay, now with this note: read-out: Ki.
As to `CS(=O)(=O)Nc1ccc(C(C(=O)NCc2ccc(C(F)(F)F)nc2SC2CCCCC2)c2cccc(F)c2)cc1F` (configuration not stated), the Ki is 48.7 nM. Same read-out and setting: to `CS(=O)(=O)Nc1ccc(C(C(=O)NCc2ccc(C(F)(F)F)nc2SC2CCCCC2)c2ccc(F)cc2)cc1F` (configuration not stated) belongs 37.6 nM; to `Cc1cccc(C(C(=O)NCc2ccc(C(F)(F)F)nc2SC2CCCCC2)c2ccc(NS(C)(=O)=O)c(F)c2)c1` (configuration not stated), 56.4 nM; to `Cc1ccc(C(C(=O)NCc2ccc(C(F)(F)F)nc2SC2CCCCC2)c2ccc(NS(C)(=O)=O)c(F)c2)cc1` (configuration not stated), 7.5 nM. For the compound `CC1CCN(c2nc(C(F)(F)F)ccc2CNC(=O)C(Cc2ccccc2)c2ccc(NS(C)(=O)=O)c(F)c2)CC1` (configuration not stated), the inhibition constant Ki is 65.9 nM. `CC1CCN(c2nc(C(F)(F)F)ccc2CNC(=O)C(Cc2ccc(F)cc2)c2ccc(NS(C)(=O)=O)c(F)c2)CC1` (configuration not stated): the Ki came to 49.3 nM. Consider `Cc1ccc(CC(C(=O)NCc2ccc(C(F)(F)F)nc2SC2CCCCC2)c2ccc(NS(C)(=O)=O)c(F)c2)cc1` (configuration not stated), for which the Ki amounted to 40.3 nM.

The next assay addresses T1, Transient receptor potential cation channel subfamily V member 1. Kind of assay: Antagonist activity at human TRPV1 expressed in CHO cells assessed as inhibition of 45 degC heat-induced activation by FLIPR assay. Type of assay: cell-based.
Conditions: not given; call rule not given here
As to `Cc1cccc(C(C(=O)NCc2ccc(C(F)(F)F)nc2N2CCC(C)CC2)c2ccc(NS(C)(=O)=O)c(F)c2)c1` (configuration not stated), the IC50 is 36.2 nM.

For another assay the target is unchanged. Kind of assay: Antagonist activity at human TRPV1 expressed in CHO cells assessed as inhibition of N-arachidonoyl dopamine-induced activation by FLIPR assay. Format: cell-based.
Conditions: not given
For the compound `Cc1cccc(C(C(=O)NCc2ccc(C(F)(F)F)nc2N2CCC(C)CC2)c2ccc(NS(C)(=O)=O)c(F)c2)c1` (configuration not stated), the Ki came to 0.25 nM.

By Ki is commonly meant the equilibrium dissociation constant of an inhibitor or competing ligand from its target. The term IC50 denotes the concentration at which inhibition is half-maximal.
